Columns and labels:
[1] = molecular target: 3',5'-cyclic-AMP phosphodiesterase 4D (Homo sapiens, UniProt Q08499); type: functional
[2] = molecular target: Beta-1 adrenergic receptor (Homo sapiens, UniProt P08588); type: functional
[3] = molecular target: 5-hydroxytryptamine receptor 2B (Homo sapiens, UniProt P41595); type: functional, cell-based
D(3) dopamine receptor = D(3) dopamine receptor (Homo sapiens, UniProt P35462)
Bile salt export pump = Bile salt export pump (Homo sapiens, UniProt O95342); type: functional
Vasopressin V2 receptor = Vasopressin V2 receptor (Homo sapiens, UniProt P30518)
[4] = molecular target: Gamma-aminobutyric acid receptor subunit alpha-1 (Rattus norvegicus, UniProt P62813); type: functional
B2 bradykinin receptor = molecular target: T1, B2 bradykinin receptor (Homo sapiens, UniProt P30411)
T1 sequence (P30411 whole entry): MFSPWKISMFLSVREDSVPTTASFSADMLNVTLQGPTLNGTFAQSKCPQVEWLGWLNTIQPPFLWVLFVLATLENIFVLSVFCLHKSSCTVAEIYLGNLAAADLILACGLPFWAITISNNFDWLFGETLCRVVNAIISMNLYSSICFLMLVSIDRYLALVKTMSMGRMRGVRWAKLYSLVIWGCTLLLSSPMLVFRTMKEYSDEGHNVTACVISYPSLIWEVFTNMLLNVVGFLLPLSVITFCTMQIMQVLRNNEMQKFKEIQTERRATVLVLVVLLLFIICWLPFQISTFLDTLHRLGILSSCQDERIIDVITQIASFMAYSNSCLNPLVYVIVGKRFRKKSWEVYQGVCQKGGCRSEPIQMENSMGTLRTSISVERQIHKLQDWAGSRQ
Further: assay procedure not described here.

Gamma-aminobutyric acid receptor subunit alpha-1, sequence (P62813 whole entry): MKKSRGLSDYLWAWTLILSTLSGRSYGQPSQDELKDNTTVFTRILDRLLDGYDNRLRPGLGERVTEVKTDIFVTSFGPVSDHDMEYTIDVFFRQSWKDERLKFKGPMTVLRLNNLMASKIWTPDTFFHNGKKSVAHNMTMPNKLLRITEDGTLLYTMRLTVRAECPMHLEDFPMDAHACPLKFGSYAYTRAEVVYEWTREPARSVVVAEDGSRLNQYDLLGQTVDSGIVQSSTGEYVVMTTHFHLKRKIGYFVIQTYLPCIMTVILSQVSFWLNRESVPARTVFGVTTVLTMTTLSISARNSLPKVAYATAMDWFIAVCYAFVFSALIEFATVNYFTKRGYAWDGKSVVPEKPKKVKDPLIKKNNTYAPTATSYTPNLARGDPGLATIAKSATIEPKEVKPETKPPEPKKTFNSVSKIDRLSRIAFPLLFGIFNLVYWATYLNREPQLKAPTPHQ
D(3) dopamine receptor, sequence (P35462 whole entry): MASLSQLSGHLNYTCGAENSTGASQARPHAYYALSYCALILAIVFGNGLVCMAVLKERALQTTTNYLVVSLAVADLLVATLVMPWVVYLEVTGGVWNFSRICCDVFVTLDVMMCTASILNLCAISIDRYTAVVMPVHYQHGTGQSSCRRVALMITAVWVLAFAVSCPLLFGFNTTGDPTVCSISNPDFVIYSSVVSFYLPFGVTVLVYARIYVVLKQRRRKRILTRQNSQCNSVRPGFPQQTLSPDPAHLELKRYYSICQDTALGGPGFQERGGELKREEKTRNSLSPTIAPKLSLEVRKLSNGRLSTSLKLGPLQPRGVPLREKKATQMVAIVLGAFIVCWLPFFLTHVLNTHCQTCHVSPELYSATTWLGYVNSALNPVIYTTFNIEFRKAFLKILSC
3',5'-cyclic-AMP phosphodiesterase 4D, sequence (Q08499 whole entry): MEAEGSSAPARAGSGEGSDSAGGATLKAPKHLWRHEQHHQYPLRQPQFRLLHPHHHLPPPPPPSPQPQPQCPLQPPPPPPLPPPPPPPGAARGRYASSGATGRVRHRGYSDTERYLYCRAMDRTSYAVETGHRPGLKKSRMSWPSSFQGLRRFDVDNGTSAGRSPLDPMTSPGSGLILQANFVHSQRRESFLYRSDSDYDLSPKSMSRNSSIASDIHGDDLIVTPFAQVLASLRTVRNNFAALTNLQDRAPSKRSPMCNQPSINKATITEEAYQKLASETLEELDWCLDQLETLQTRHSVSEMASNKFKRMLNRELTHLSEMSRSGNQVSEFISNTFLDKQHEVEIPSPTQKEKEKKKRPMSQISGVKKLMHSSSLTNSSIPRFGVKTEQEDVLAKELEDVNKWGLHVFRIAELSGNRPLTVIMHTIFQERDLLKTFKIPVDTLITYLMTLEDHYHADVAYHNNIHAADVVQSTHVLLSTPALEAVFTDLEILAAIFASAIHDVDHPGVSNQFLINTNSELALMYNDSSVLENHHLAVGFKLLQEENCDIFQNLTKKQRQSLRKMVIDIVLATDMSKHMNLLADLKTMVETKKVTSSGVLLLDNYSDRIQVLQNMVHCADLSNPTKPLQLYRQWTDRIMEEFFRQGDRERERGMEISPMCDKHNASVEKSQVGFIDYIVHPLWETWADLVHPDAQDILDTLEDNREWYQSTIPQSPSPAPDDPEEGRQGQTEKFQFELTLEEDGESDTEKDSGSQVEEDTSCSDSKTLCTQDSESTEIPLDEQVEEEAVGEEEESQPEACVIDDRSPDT
Bile salt export pump, sequence (O95342 whole entry): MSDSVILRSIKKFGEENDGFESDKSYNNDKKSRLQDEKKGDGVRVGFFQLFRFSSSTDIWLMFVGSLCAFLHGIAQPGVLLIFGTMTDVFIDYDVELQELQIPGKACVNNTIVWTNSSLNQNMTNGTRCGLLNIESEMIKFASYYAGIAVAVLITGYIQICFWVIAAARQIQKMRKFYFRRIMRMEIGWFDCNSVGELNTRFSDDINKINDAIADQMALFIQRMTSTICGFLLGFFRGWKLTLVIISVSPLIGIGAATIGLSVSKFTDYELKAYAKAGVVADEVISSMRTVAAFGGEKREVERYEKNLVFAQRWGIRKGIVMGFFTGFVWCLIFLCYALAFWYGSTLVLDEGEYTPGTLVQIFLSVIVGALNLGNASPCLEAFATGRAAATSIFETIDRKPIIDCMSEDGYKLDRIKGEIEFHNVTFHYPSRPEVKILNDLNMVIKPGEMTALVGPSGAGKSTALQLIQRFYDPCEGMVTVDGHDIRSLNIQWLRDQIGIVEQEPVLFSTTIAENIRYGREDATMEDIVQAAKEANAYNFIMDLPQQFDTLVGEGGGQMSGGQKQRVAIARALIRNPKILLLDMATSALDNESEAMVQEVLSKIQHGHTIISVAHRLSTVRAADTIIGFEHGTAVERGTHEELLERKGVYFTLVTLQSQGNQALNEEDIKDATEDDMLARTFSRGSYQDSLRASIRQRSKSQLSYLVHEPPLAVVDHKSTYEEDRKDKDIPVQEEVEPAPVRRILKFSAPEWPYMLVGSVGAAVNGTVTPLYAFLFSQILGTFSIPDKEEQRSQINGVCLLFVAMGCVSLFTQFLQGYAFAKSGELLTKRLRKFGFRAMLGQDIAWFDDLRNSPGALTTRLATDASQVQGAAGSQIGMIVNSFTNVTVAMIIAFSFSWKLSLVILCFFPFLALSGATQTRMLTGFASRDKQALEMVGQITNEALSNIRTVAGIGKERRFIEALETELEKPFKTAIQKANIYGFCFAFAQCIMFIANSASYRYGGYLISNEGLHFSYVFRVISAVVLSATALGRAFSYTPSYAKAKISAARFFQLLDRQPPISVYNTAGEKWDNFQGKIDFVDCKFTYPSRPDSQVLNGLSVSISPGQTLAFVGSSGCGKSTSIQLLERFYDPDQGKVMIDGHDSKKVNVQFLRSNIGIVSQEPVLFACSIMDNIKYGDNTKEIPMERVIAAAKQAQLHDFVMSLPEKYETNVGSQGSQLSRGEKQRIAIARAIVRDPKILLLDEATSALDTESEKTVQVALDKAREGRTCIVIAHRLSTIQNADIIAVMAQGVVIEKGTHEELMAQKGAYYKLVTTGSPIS
Vasopressin V2 receptor, sequence (P30518 whole entry): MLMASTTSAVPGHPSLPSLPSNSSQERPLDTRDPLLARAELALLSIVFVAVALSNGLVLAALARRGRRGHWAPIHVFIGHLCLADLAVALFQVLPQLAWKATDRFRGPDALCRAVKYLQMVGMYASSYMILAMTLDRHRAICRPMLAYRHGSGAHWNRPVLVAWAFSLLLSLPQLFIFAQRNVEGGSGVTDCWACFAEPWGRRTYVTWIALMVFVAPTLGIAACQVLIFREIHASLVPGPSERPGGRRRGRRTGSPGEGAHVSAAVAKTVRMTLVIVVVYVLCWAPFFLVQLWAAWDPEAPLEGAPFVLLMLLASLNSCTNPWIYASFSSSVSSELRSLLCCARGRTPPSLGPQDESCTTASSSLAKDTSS
Beta-1 adrenergic receptor, sequence (P08588 whole entry): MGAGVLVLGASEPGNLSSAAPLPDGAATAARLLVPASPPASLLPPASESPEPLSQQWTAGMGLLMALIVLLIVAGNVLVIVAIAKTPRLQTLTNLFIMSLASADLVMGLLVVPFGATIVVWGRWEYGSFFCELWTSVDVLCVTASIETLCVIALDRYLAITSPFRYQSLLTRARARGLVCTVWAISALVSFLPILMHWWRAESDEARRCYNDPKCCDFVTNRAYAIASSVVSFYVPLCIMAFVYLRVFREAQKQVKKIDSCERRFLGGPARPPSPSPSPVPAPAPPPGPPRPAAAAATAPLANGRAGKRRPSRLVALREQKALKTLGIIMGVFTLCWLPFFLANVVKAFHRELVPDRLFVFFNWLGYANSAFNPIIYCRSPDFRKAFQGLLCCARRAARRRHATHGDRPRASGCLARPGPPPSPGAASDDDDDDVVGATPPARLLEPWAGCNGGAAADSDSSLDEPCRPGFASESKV
5-hydroxytryptamine receptor 2B, sequence (P41595 whole entry): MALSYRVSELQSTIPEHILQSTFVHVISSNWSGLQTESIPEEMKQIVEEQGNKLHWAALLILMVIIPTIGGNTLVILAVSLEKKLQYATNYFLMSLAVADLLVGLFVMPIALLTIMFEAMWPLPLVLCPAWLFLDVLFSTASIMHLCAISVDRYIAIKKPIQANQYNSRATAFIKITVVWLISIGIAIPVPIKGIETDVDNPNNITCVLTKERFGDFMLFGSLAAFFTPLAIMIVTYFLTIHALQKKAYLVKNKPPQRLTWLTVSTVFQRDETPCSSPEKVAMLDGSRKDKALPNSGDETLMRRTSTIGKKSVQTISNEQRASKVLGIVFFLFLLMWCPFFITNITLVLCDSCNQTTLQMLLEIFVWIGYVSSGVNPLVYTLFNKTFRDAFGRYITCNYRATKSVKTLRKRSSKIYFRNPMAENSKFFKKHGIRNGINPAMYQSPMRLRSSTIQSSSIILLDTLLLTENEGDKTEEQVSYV

Compound	AC50 [1] [µM]	AC50 [2] [µM]	AC50 [3] [µM]	AC50 (D(3) dopamine receptor) [µM]	AC50 (Bile salt export pump) [µM]	AC50 (Vasopressin V2 receptor) [µM]	AC50 [4] [µM]	AC50 (B2 bradykinin receptor) [µM]
CCC(=O)O[C@]1(C(=O)CCl)[C@@H](C)C[C@H]2[C@@H]3CCC4=CC(=O)C=C[C@]4(C)[C@@]3(F)[C@@H](O)C[C@@]21C [CLOBETASOL PROPIONATE]	> 30	> 30	> 30	> 30	23	> 30	> 30	> 30
CCCCCCCN(CC)CCCC(O)c1ccc(NS(C)(=O)=O)cc1 (centres undefined) [IBUTILIDE]	> 30	> 30	> 30	4.3	> 300	> 30	> 30	> 30
CC[C@H](C)C(=O)O[C@H]1C[C@@H](C)C=C2C=C[C@H](C)[C@H](CC[C@@H]3C[C@@H](O)CC(=O)O3)[C@H]21 [LOVASTATIN]	> 30	> 10	> 10	> 10	27	> 30	> 10	> 30
CNC(=C[N+](=O)[O-])NCCSCc1csc(CN(C)C)n1 [NIZATIDINE]	> 30	> 10	> 10	> 30	> 300	> 10	> 10	> 10
CCCc1cc(=O)[nH]c(=S)[nH]1 [PROPYLTHIOURACIL]	> 30	> 10	> 10	> 30	> 300	> 10	> 10	> 10
Cn1cc(C(=O)[C@@H]2CCc3nc[nH]c3C2)c2ccccc21 [RAMOSETRON]	> 30	> 30	> 30	> 30	> 300	> 30	17	> 30
CN(CCOc1ccc(CC2SC(=O)NC2=O)cc1)c1ccccn1 (centres undefined) [ROSIGLITAZONE]	29	> 30	> 30	> 30	1	> 30	> 30	> 30
CC(C)[C@H](N)C(=O)OCCOCn1cnc2c(=O)[nH]c(N)nc21 [VALACYCLOVIR]	> 30	> 10	> 10	> 10	> 300	> 30	> 10	> 30
